Source: patent US20140288110A1, “PPAR MODULATORS” (EVOLVA SA, priority 2006, published 2014)

Assays:
[1] = tested on: 3T3-L1 preadipocytes; test: Glucose uptake assay; format: cell-based; parameters: dose or concentration left out as unconfirmed; conditions: SN1
Method: Glucose uptake assays are important to establish the suitability of a compound for the treatment of insulin resistance.
Briefly, 3T3-L1 preadipocytes are grown in 12-well plates until confluence. Cells are washed with serum-free DMEM and incubated with 1 ml of the same medium at 37° C. for 1-2 h. The cells are then washed with […] (KRP) buffer and then incubated with 0.9 ml KRP buffer at 37° C. for 30 min. Insulin is added to the cells at 0, 0.3, 1 and 3 nM final concentration and incubated for 15 min at 37° C. Glucose uptake is initiated by the addition of 0.1 ml of Krebs-Ringer phosphate (KRP) buffer supplemented with 10 mM [^3H] 2-deoxy-D-glucose (1 mCi/l). After a 10 minute incubation at 37° C., the medium is aspirated and plates washed with ice-cold PBS to terminate the induced glucose uptake. The cells are lyzed with 0.5 ml 1% Triton X-100 and radioactivity levels determined using a scintillation counter. The results are depicted in FIG. 7.

[2] = tested on: 3T3-L1 / MEFs; test: Adipocyte differentiation assay, induction, Oil Red O staining; format: cell-based, mouse; conditions: induction assay, Oil Red O
Method: This example describes an assay for determining adipocyte differention. Compounds are tested to see whether they induce adipocyte differentiation and also to see whether they inhibit adipocyte differention.
MEFs were grown in AmnioMax basal medium (Gibco) supplemented with 7.5% Amniomax supplement C-100 (Gibco), 7.5% Fetal Bovine Serum (FBS), 2 mM Glutamine, 62.5 μg/ml penicillin and 100 μg/ml Streptomycin (growth medium). At confluence, MEFs were induced to differentiation in growth medium with the addition of 1 microM dexamethasone (Sigma) 0.5 mM isobutylmethylxanthine (Sigma), 5 microg/ml insulin (Sigma) and 10 microM test compound dissolved in DMSO or DMSO alone. Medium was subsequently renewed every 48 hrs with growth media supplemented with 5 microg/ml Insulin and ligand or DMSO.
Briefly, to test compounds as inducers of adipocyte differentiation, 3T3-L1 are grown to confluence in DMEM with 10% Calf serum (CS), typically in 24 well dishes. At 2 days post confluence (day 0), cells are induced to differentiate with DMEM supplemented with 10% fetal bovine serum (FBS), 1 μM dexamethasone and the test compound ([…], 1 and 10 microM). BRL49653 (1.0 μM dissolved in 100% Me2SO) is used as a positive control. After 48 h, the cells are re-fed with DMEM containing 10% FBS supplemented with the test compound or the positive control. From day 4, cells are grown in DMEM with 10% FBS and are changed every second day until day 8. At day 8, cells are stained with Oil Red O as described below.
Cells cultured as described above are used for Oil Red staining. Dishes are washed in PBS and cells were fixed in 3.7% paraformaldehyde for 1 h and stained with oil red O as described in (Hansen et al 1999). Oil red O solution stock solution is prepared by dissolving 0.5 g of Oil Red O (Sigma) in 100 ml of isopropanol. Oil re O working solution is prepared by diluting a stock solution with water (6:4) followed by filtration.
Table II summarizes results obtained with different analogs of DPD (SN1), “0” representing similar results to DPD, “−1” representing even less adipocyte differentiation, “+1” representing more adipocyte differentiation (both relative to DPD) and “−” meaning not assayed.

[3] = target: T1, mPPARdeltaLBD (Mus musculus, UniProt P35396); test: PPARdelta transactivation assay (mPPARdeltaLBD); format: cell-based
T1 construct: expressed in transfected cells
T1 sequence (P35396 210-438 limits assumed): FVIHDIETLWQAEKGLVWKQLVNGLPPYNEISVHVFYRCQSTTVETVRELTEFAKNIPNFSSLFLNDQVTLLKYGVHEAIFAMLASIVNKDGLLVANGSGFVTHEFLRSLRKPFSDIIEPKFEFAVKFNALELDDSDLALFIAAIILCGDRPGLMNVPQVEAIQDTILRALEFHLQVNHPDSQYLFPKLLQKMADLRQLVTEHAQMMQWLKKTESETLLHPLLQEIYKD
Method: This example describes a transactivation assay for determining PPARdelta modulating activity.
DPD and other ligands are tested for their ability to transactivate PPARdelta essentially as described in Example 1.

O=C(O)CC/C=C\C[C@@H]1CO[C@H](c2ccccc2Cl)O[C@@H]1c1ccccc1O (racemic) [SN1, 4-(Z)-6-(2-o-chlorophenyl-4-o-hydroxyphenyl-1,3-dioxan-cis-5-yl) hexenoic acid]
glucose uptake compared with Avandia [1]: same level of glucose uptake | induction of adipocyte differentiation (red staining), in words [2]: very little red staining | increase of PPAR delta transactivation [3]: no or little increase in transactivation
